Assay [1] addresses T1, B1 receptors (Oryctolagus cuniculus, UniProt P48748).
T1 construct: The thorax was opened and the thoracic aorta carefully removed; from tissue; host or cells: rabbit thoracic aorta spiral strips
T1 sequence (P48748 1-352): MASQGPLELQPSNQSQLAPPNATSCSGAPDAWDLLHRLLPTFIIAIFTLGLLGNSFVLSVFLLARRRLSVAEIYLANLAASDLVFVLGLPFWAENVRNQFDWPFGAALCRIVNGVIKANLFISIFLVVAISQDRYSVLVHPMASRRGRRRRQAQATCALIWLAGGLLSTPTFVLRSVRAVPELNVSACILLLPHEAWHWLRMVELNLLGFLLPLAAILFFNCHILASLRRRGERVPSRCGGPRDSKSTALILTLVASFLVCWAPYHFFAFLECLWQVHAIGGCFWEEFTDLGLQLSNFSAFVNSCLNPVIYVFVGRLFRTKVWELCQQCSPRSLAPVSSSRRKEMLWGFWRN
Put plainly: B1 receptor bioassay, rabbit aorta strips contracted with des-Arg9-BK. It counts as cell-based. As to conditions: 50% reduction of sustained contraction to 10^-7 M des-Arg9-BK; read-out: Rabbit Aorta p IC50 B1 receptors (converted).

The target in the next assay is B2 receptors (Canis lupus familiaris, UniProt Q9BDQ4). As to conditions: anaesthetized dog, i.v. infusion, BK challenge, n=3. As to the method: Mongrel dogs of either sex, weight range 10-15 kg were used. These were anaesthetized with pentobarbital, 30 mg/kg i.v., and catheters were placed in one femoral artery and both femoral veins for the recording of blood pressure and infusion and injection of compounds.

Assay [2] concerns the target T2, B1 receptors (Canis lupus familiaris, UniProt Q9BDQ5).
T2 construct: Mongrel dogs of either sex, weight range 10-15 kg were used; from tissue; host or cells: anaesthetized mongrel dog, whole animal
T2 sequence (Q9BDQ5 1-350): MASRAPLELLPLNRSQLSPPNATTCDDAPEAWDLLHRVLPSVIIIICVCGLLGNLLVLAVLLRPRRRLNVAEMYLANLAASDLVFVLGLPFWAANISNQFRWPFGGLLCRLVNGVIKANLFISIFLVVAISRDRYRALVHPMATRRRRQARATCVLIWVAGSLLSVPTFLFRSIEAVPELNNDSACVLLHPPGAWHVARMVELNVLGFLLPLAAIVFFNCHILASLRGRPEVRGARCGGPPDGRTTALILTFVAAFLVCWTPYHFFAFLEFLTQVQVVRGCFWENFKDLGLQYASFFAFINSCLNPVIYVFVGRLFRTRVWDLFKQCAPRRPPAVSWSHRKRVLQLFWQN
The assay can be described thus: Dog blood pressure, hypotensive response to des-Arg9-BK. It counts as in vivo. As to conditions: anaesthetized dog, i.v. infusion, des-Arg9-BK challenge, n=3.

In general, IC50 refers to the concentration that inhibits the measured activity by half.

Each structure is given as a SMILES string.

Chain of B2 receptors (Q9BDQ4 1-392): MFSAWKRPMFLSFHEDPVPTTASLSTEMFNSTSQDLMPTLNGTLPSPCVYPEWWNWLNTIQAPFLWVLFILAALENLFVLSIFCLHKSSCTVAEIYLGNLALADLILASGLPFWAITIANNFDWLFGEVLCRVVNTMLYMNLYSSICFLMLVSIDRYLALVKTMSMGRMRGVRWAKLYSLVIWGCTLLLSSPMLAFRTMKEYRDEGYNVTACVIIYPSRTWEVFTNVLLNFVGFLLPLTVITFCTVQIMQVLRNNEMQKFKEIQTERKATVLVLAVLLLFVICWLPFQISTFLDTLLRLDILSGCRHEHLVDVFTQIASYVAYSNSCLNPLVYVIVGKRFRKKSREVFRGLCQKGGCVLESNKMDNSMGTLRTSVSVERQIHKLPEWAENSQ

`N=C(N)NCCC[C@@H](N)C(=O)N[C@@H](CCCNC(=N)N)C(=O)N1CCC[C@H]1C(=O)N1C[C@H](O)C[C@H]1C(=O)NCC(=O)N[C@@H](Cc1cccs1)C(=O)N[C@@H](CO)C(=O)N[C@@H](C(=O)N1[C@H](C(=O)N[C@@H](CCCNC(=N)N)C(=O)O)C[C@@H]2CCCC[C@@H]21)C1Cc2ccccc2C1` [Compound 7, DArg-Arg-Pro-Hyp-Gly-Thi-Ser-DIglb-Oic-Arg]: the “Ileum Activity, antagonist potency given as pA2” value in the assay on guinea pig ileum is on record as 7.4. At B1 receptors [1], the IC50 is 0.141 µM. Besides, on B2 receptors, the “Mean ED50, B2 receptor-mediated hypotensive response” value is listed as 0.17 mg/kg/min. The “Mean ED50, B1 receptor-mediated hypotensive response” value on B1 receptors [2] is listed as 0.35 mg/kg/min.

Consider `N=C(N)NCCC[C@@H](N)C(=O)N[C@@H](CCCNC(=N)N)C(=O)N1CCC[C@H]1C(=O)N1C[C@H](O)C[C@H]1C(=O)NCC(=O)N[C@H](C(=O)N[C@@H](CO)C(=O)N[C@@H](C(=O)N1[C@H](C(=O)N[C@@H](CCCNC(=N)N)C(=O)O)C[C@@H]2CCCC[C@@H]21)C1Cc2ccccc2C1)C1Cc2ccccc2C1` [Compound 1, DArg-Arg-Pro-Hyp-Gly-Iglb-Ser-DIglb-O ic-Arg], for which the “Ileum Activity, antagonist potency given as pA2” value with guinea pig ileum came out at 7.9. Also, the “Uterus Activity, antagonist potency given as pA2” value with isolated rat uterus is on record as 8.5. On B1 receptors [1], the IC50 is 0.251 µM. In addition, the “Mean ED50, B2 receptor-mediated hypotensive response” value at B2 receptors worked out at 0.03 mg/kg/min. The “Mean ED50, B1 receptor-mediated hypotensive response” value at B1 receptors [2] worked out at 0.24 mg/kg/min.
